According to patent publication US3966719A, “4-(Tetrazol-5-yl)-Δ^3 -cephem compounds” (Pfizer Inc., priority 1974, dated 1976):
≈ marks a conversion by molar mass, not a printed value.

Tested on: Streptomyces pyogenes
Assay: antimicrobial test in nutrient broth, minimum concentration (MIC) at which growth failed to occur
Assay type: cell-based
Details: standardized conditions, read-out: In vitro MIC

| MIC [µg/mL] | Structure (SMILES) |
| --- | --- |
| 1.5 (≈ 3.77 µM) | CC1=C(c2nn[nH]n2)N2C(=O)C(NC(=O)C(N=[N+]=[N-])c3ccccc3)C2SC1 (centres unmarked) [C6H5CH(N3)--, A = H] |
| 0.78 (≈ 2.19 µM) | CC1=C(c2nn[nH]n2)N2C(=O)C(NC(=O)Cc3ccccc3)C2SC1 (centres unmarked) [C6H5CH2--, A = H, 7-Phenylacetamido-3-methyl-4-(tetrazol-5-yl)-Δ^3-cephem] |
| 0.1 (≈ 0.21 µM) | Cn1nnnc1SCC1=C(c2nn[nH]n2)N2C(=O)C(NC(=O)Cc3cccs3)C2SC1 (centres unmarked) |
| 0.4 (≈ 1.1 µM) | CC1=C(c2nn[nH]n2)N2C(=O)C(NC(=O)Cc3cccs3)C2SC1 (centres unmarked) [R1 not printed, A = H] |
| 1.5 (≈ 4.03 µM) | CC1=C(c2nn[nH]n2)N2C(=O)C(NC(=O)[C@H](O)c3ccccc3)C2SC1 (stereo partly drawn) [D--C6H5CH(OH)--, A = H, 7-(D-α-Hydroxyphenylacetamido)-3-methyl-4-(tetrazol-5-yl)-Δ^3-cephem] |
| 0.78 (≈ 1.9 µM) | CC1=C(c2nn[nH]n2)N2C(=O)C(NC(=O)CSc3nnc(C)s3)C2SC1 (centres unmarked) [R1 not printed, A = H] |
| 6.2 (≈ 17.8 µM) | CC1=C(c2nn[nH]n2)N2C(=O)C(NC(=O)Cn3cnnn3)C2SC1 (centres unmarked) |
| 3.12 (≈ 6.41 µM) | Cn1nnnc1SCC1=C(c2nn[nH]n2)N2C(=O)C(NC(=O)[C@H](O)c3ccccc3)C2SC1 (stereo partly drawn) [7-D-(α-Hydroxy-α-phenylacetamido)-3-(1-methyltetrazol-5-ylthiomethyl)-4-(tetrazol-5-yl)-Δ^3-cephem] |
| 1.6 (≈ 3.81 µM) | CC(=O)OCC1=C(c2nn[nH]n2)N2C(=O)C(NC(=O)Cc3cccs3)C2SC1 (centres unmarked) [R1 not printed, A = OCOCH3] |
| 3.1 (≈ 8.32 µM) | CC1=C(c2nn[nH]n2)N2C(=O)C(NC(=O)COc3ccccc3)C2SC1 (centres unmarked) [C6H5OCH2--, A = H, 7-Phenoxyacetamido-3-methyl-4-(tetrazol-5-yl)-Δ^3-cephem] |
| 1.5 (≈ 3.87 µM) | CC1=C(c2nn[nH]n2)N2C(=O)C(NC(=O)[C@H](N)c3ccc(O)cc3)C2SC1 (stereo partly drawn) [D--4-HOC6H4CH(NH2)--, A = H, 7-[D-α-Amino-α-(p-hydroxyphenyl)acetamido]-3-methyl-4-(tetrazol-5-yl)-Δ^3-cephem] |
